# Measured values taken from PubChem BioAssay (NCI).
#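 Assay format: 96-well plates, 48-hour exposure. Here, GI50 denotes the concentration required for 50% inhibition of growth. TGI denotes the concentration required for complete inhibition of growth.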
# Tests used:
# Assay in all cases: NCI tumour cell line growth inhibition, 48 h
# [1] = tested on: K-562 leukemia
# [2] = tested on: SNB-75 CNS
# [3] = tested on: UACC-257 melanoma
# [4] = tested on: CCRF-CEM leukemia
# [5] = tested on: OVCAR-5 ovarian
# [6] = tested on: TK-10 renal
# [7] = tested on: OVCAR-4 ovarian
# [8] = tested on: COLO 205 colon
# [9] = tested on: A498 renal
# [10] = tested on: ACHN renal
# [11] = tested on: SNB-19 CNS
# [12] = tested on: SF-539 CNS
# [13] = tested on: RPMI-8226 leukemia
# [14] = tested on: SK-MEL-2 melanoma
# [15] = tested on: NCI-H522 lung
# [16] = tested on: BT-549 breast
# [17] = tested on: M14 melanoma
# [18] = tested on: HT29 colon
# [19] = tested on: OVCAR-8 ovarian
# [20] = tested on: RXF 393 renal
# [21] = tested on: A549 NSCLC
# [22] = tested on: NCI-H226 lung
# [23] = tested on: PC-3 prostate
# [24] = tested on: LOX IMVI melanoma
# [25] = tested on: SW-620 colon
# [26] = tested on: HCT-15 colon
# [27] = tested on: HL-60(TB) leukemia
# [28] = tested on: DU-145 prostate
# [29] = tested on: HCC-2998 colon
# [30] = tested on: SF-268 CNS
# [31] = tested on: U251 CNS
# [32] = tested on: SK-MEL-28 melanoma
# [33] = tested on: SK-OV-3 ovarian
# [34] = tested on: MOLT-4 leukemia
# [35] = tested on: SF-295 CNS
# [36] = tested on: MCF7 breast
# [37] = tested on: CAKI-1 renal
# [38] = tested on: EKVX NSCLC
# [39] = tested on: SN12C renal
# [40] = tested on: UACC-62 melanoma
# [41] = tested on: UO-31 renal
# [42] = tested on: HCT-116 colon
# [43] = tested on: NCI/ADR-RES ovarian
# [44] = tested on: HOP-62 NSCLC
# [45] = tested on: 786-0 renal
# [46] = tested on: IGROV1 ovarian
# [47] = tested on: SK-MEL-5 melanoma
# [48] = tested on: MDA-MB-435
# [49] = tested on: KM12 colon
# [50] = tested on: MALME-3M melanoma
# [51] = tested on: HOP-92 NSCLC
# [52] = tested on: NCI-H460 lung
# [53] = tested on: HS 578T breast
# [54] = tested on: SR leukemia
# [55] = tested on: OVCAR-3 ovarian
# [56] = tested on: T-47D breast
# [57] = tested on: MDA-MB-231 breast
smiles,measurement,setting,value
Cc1cccc(N2CCN(C3=C(Cl)C(=O)c4ncccc4C3=O)CC2)c1,GI50,[1],1.8 µM
same,TGI,[1],5.31 µM
same,GI50,[2],10.9 µM
same,TGI,[2],27.9 µM
same,GI50,[3],2.05 µM
same,TGI,[3],4.97 µM
same,GI50,[4],2.03 µM
same,TGI,[4],5.79 µM
same,GI50,[5],15 µM
same,TGI,[5],31.5 µM
same,GI50,[6],3.96 µM
same,TGI,[6],8.89 µM
same,GI50,[7],1.74 µM
same,TGI,[7],3.26 µM
same,GI50,[8],1.94 µM
same,TGI,[8],3.79 µM
same,GI50,[9],13.1 µM
same,TGI,[9],26.5 µM
same,GI50,[10],1.72 µM
same,TGI,[10],3.51 µM
same,GI50,[11],14.4 µM
same,TGI,[11],29.5 µM
same,GI50,[12],3.91 µM
same,TGI,[12],15.6 µM
same,GI50,[13],2.08 µM
same,TGI,[13],5.47 µM
same,GI50,[14],6.33 µM
same,TGI,[14],19.2 µM
same,GI50,[15],1.74 µM
same,TGI,[15],3.42 µM
same,GI50,[16],3.61 µM
same,TGI,[16],9.58 µM
same,GI50,[17],2.69 µM
same,TGI,[17],9.36 µM
same,GI50,[18],6.09 µM
same,TGI,[18],21 µM
same,GI50,[19],2.66 µM
same,TGI,[19],9.3 µM
same,GI50,[20],1.72 µM
same,TGI,[20],3.15 µM
same,GI50,[21],15.7 µM
same,TGI,[21],36 µM
same,GI50,[22],12.9 µM
same,TGI,[22],33.3 µM
same,GI50,[23],4.48 µM
same,TGI,[23],17.5 µM
same,GI50,[24],1.57 µM
same,TGI,[24],3.02 µM
same,GI50,[25],1.42 µM
same,TGI,[25],3 µM
same,GI50,[26],1.71 µM
same,TGI,[26],4.05 µM
same,GI50,[27],1.27 µM
same,TGI,[27],3.82 µM
same,GI50,[28],6.86 µM
same,TGI,[28],26.3 µM
same,GI50,[29],8.53 µM
same,TGI,[29],22.1 µM
same,GI50,[30],14.4 µM
same,TGI,[30],32.2 µM
same,GI50,[31],6.96 µM
same,TGI,[31],21.1 µM
same,GI50,[32],2.6 µM
same,TGI,[32],6.61 µM
same,GI50,[33],12.8 µM
same,TGI,[33],42.9 µM
same,GI50,[34],2.01 µM
same,TGI,[34],5.45 µM
same,GI50,[35],12.1 µM
same,TGI,[35],25.5 µM
same,GI50,[36],1.63 µM
same,TGI,[36],3.75 µM
same,GI50,[37],2.86 µM
same,TGI,[37],11.6 µM
same,GI50,[38],1.78 µM
same,TGI,[38],3.34 µM
same,GI50,[39],4.28 µM
same,TGI,[39],21.9 µM
same,GI50,[40],3.49 µM
same,TGI,[40],13 µM
same,GI50,[41],1.48 µM
same,TGI,[41],2.81 µM
same,GI50,[42],1.67 µM
same,TGI,[42],3.07 µM
same,GI50,[43],2.44 µM
same,TGI,[43],7.45 µM
same,GI50,[44],17 µM
same,TGI,[44],31 µM
same,GI50,[45],2.33 µM
same,TGI,[45],5.36 µM
same,GI50,[46],2.53 µM
same,TGI,[46],6.58 µM
same,GI50,[47],9.63 µM
same,TGI,[47],21.5 µM
same,GI50,[48],1.81 µM
same,TGI,[48],3.35 µM
same,GI50,[49],19 µM
same,TGI,[49],36.4 µM
same,GI50,[50],1.83 µM
same,TGI,[50],3.77 µM
same,GI50,[51],1.48 µM
same,TGI,[51],2.86 µM
same,GI50,[52],5.49 µM
same,TGI,[52],21.3 µM
same,GI50,[53],5.74 µM
same,TGI,[53],38.5 µM
O=C(CSc1nc2ccccc2c(=O)n1-c1ccc(Cl)cc1)N/N=C/c1ccc(Oc2ccc(Cl)cc2)cc1,GI50,[54],1.84 µM
same,TGI,[54],6.86 µM
same,GI50,[1],4.15 µM
same,TGI,[1],20.2 µM
same,GI50,[2],3.99 µM
same,TGI,[2],29.2 µM
same,GI50,[3],4.62 µM
same,TGI,[3],22.5 µM
same,GI50,[4],3.09 µM
same,TGI,[4],48.5 µM
same,GI50,[5],2.27 µM
same,TGI,[5],6.44 µM
same,GI50,[6],5.97 µM
same,TGI,[6],40.2 µM
same,GI50,[7],1.89 µM
same,TGI,[7],4.57 µM
same,GI50,[8],2.79 µM
same,TGI,[8],8.74 µM
same,GI50,[9],1.94 µM
same,TGI,[9],4.35 µM
same,GI50,[10],4.36 µM
same,TGI,[10],15.2 µM
same,GI50,[11],3.36 µM
same,TGI,[11],12.7 µM
same,GI50,[12],2.54 µM
same,TGI,[12],6.32 µM
same,GI50,[55],2.75 µM
same,TGI,[55],9.55 µM
same,GI50,[13],2.98 µM
same,TGI,[13],15.8 µM
same,GI50,[56],2.09 µM
same,TGI,[56],5.76 µM
same,GI50,[14],2.86 µM
same,TGI,[14],8.93 µM
same,GI50,[15],2.34 µM
same,TGI,[15],8.31 µM
same,GI50,[16],3.28 µM
same,TGI,[16],12.2 µM
same,GI50,[17],1.58 µM
same,TGI,[17],3.47 µM
same,GI50,[18],2.14 µM
same,TGI,[18],11.1 µM
same,GI50,[19],2.41 µM
same,TGI,[19],6.56 µM
same,GI50,[20],1.7 µM
same,TGI,[20],3.14 µM
same,GI50,[21],3.25 µM
same,TGI,[21],14 µM
same,GI50,[22],2.46 µM
same,TGI,[22],6.59 µM
same,GI50,[23],2.58 µM
same,TGI,[23],9.32 µM
same,GI50,[24],1.29 µM
same,TGI,[24],2.59 µM
same,GI50,[25],1.81 µM
same,TGI,[25],7.84 µM
same,GI50,[26],2.41 µM
same,TGI,[26],7.49 µM
same,GI50,[27],16 µM
same,TGI,[27],37 µM
same,GI50,[28],3.52 µM
same,TGI,[28],20.4 µM
same,GI50,[29],1.92 µM
same,TGI,[29],3.81 µM
same,GI50,[30],3.85 µM
same,TGI,[30],23.9 µM
same,GI50,[31],1.65 µM
same,TGI,[31],3.69 µM
same,GI50,[32],1.51 µM
same,TGI,[32],3.01 µM
same,GI50,[33],3.26 µM
same,TGI,[33],11.9 µM
same,GI50,[34],2.29 µM
same,TGI,[34],9.23 µM
same,GI50,[35],3.61 µM
same,TGI,[35],13.3 µM
same,GI50,[36],2.01 µM
same,TGI,[36],5.5 µM
same,GI50,[37],3.06 µM
same,TGI,[37],12 µM
same,GI50,[38],3.1 µM
same,TGI,[38],13.9 µM
same,GI50,[57],1.79 µM
same,TGI,[57],3.9 µM
same,GI50,[39],1.74 µM
same,TGI,[39],4.14 µM
same,GI50,[40],1.59 µM
same,TGI,[40],3.18 µM
same,GI50,[41],7.47 µM
same,TGI,[41],21.1 µM
same,GI50,[42],1.55 µM
same,TGI,[42],3.74 µM
same,GI50,[43],1.64 µM
same,TGI,[43],3.56 µM
same,GI50,[44],1.69 µM
same,TGI,[44],4.05 µM
same,GI50,[45],2.51 µM
same,TGI,[45],6.42 µM
same,GI50,[46],1.51 µM
same,TGI,[46],3.28 µM
same,GI50,[47],1.75 µM
same,TGI,[47],3.51 µM
same,GI50,[48],1.93 µM
same,TGI,[48],4.56 µM
same,GI50,[49],2.04 µM
same,TGI,[49],5 µM
same,GI50,[50],1.38 µM
same,TGI,[50],2.77 µM
same,GI50,[51],2.07 µM
same,TGI,[51],5.62 µM
same,GI50,[52],0.788 µM
same,TGI,[52],2.6 µM
same,GI50,[53],2.17 µM
same,TGI,[53],6.36 µM
